The values that follow come from US10537557B2, “Methods of treating respiratory disorders” (CASE WESTERN RESERVE UNIVERSITY, priority 2016, dated 2020).

For experiment [1] the following is noted: Gaston et al. 1994; cited from earlier work.
The test system of a further experiment is room air-exposed mice. As to the kind of experiment: Lung mechanics: methacholine challenge in room air-exposed mice, flexiVent Rrs. It counts as in vivo, C57BL/6 mice. Conditions: both ages (3 and 6 weeks), GSNO pretreatment, data not shown. As to the method: Animal protocols were approved by the Institutional Animal Care and Use Committee at Case Western Reserve University (Cleveland, Ohio). Timed pregnant C57BL/6 mice (Charles River Laboratories, Wilmington, Mass.) were maintained on 12-hour light-dark cycles with ad libitum standard food and water. Within 24 hours of birth, litters were pooled and randomized into exposure groups. Paired with a nursing dam, pups were raised in 60% oxygen or room air (21%) for 21 days. Hyperoxia-exposed animals were housed in standard cages placed in a 38-L Plexiglas chamber with a continuous flow of blended oxygen (2 L/min). Oxygen concentrations were monitored twice daily via an oxygen analyzer (miniOX I; MSA Medical, Gurnee, Ill.). […]
Under general anesthesia (i.p. ketamine/xylazine), mice were placed supine on a heated surgical table, tracheostomized, and ventilated via a 19-gauge blunt-tip cannula with a commercial rodent ventilator (flexiVent; SCIREQ, Montreal, Canada). […] Using computer software (flexiWare 5.1, Version 7.2, SCIREQ), five measurements of respiratory system resistance (Rrs) were calculated by a 2.5 Hz single-frequency forced oscillation maneuver (Snapshot 150), and an average was reported for each methacholine dose. […]
Data are expressed as means±S.E.M. A minimum of two litters or experiments was used for each study; n represent individual animals or cell transfections. […]

For another experiment, the system named is hyperoxia-exposed mice. The experiment in a line: Lung mechanics: methacholine challenge after neonatal hyperoxia (BPD model), flexiVent Rrs. It counts as in vivo, C57BL/6 mice. Conditions: for Rrs in response to aerosolized methacholine challenge (airway hyperreactivity): 3-week-old mice raised in hyperoxia (60%), compared with room air controls; for Rrs increase in hyperoxia, methacholine dose response (FIG. 5A-B): at 3 weeks and after room air recovery at 6 weeks of age; for Rrs in response to aerosolized methacholine challenge (airway hyperresponsiveness): six-week-old mice, 3 weeks neonatal hyperoxia then room air recovery. As to the method:
Animal protocols were approved by the Institutional Animal Care and Use Committee at Case Western Reserve University (Cleveland, Ohio). Timed pregnant C57BL/6 mice (Charles River Laboratories, Wilmington, Mass.) were maintained on 12-hour light-dark cycles with ad libitum standard food and water. Within 24 hours of birth, litters were pooled and randomized into exposure groups. Paired with a nursing dam, pups were raised in 60% oxygen or room air (21%) for 21 days. Hyperoxia-exposed animals were housed in standard cages placed in a 38-L Plexiglas chamber with a continuous flow of blended oxygen (2 L/min). Oxygen concentrations were monitored twice daily via an oxygen analyzer (miniOX I; MSA Medical, Gurnee, Ill.). To control for oxygen exposures, nursing dams were rotated between paired litters during weekly cage changes. Ventilator studies were conducted and/or tissue harvested within 24 hours of removal from hyperoxia at 3 weeks. A subgroup of animals was returned to room air following 3 weeks of initial hyperoxia exposure and subsequently recovered to 6 weeks of age for adult lung mechanic and GSNOR activity studies.
N6022 is a selective small molecule reversible inhibitor of GSNOR. Powdered N6022 (Nivalis Therapeutics, Boulder, Colo., purchased through MedChem Express, Monmouth Junction, N.J.) was reconstituted in sterile PBS (pH 7.4) and administered to hyperoxia exposed mice as a single 1 mg/kg i.p. injection the day prior to testing lung mechanics.
Under general anesthesia (i.p. ketamine/xylazine), mice were placed supine on a heated surgical table, tracheostomized, and ventilated via a 19-gauge blunt-tip cannula with a commercial rodent ventilator (flexiVent; SCIREQ, Montreal, Canada). Animals were paralyzed (i.p. pancuronium bromide; Sigma-Aldrich) and ventilated at default settings: tidal volume of 10 mL/kg, a rate of 150 breaths/min, a positive end expiratory pressure of 3 cm H2O, and a FiO2 of 50%. Following two recruitment deep inflations of sustained inspiration up to a pressure of 30 cm H2O for 3 seconds, 10 mM GSNO or saline vehicle was aerosolized over 10 seconds using an ultrasonic nebulizer (Aeroneb; SCIREQ) diverted into the ventilator's inspiratory flow. Inhaled GSNO concentration was chosen based upon the published studies in ventilated guinea pigs and human trials in cystic fibrosis. After 5 minutes had elapsed, two recruitment deep inflations were again delivered, and increasing methacholine doses of 0, 12.5, 25, 50, 100, and 200 mg/mL were similarly aerosolized over 10 seconds to generate a dose-response curve. Using computer software (flexiWare 5.1, Version 7.2, SCIREQ), five measurements of respiratory system resistance (Rrs) were calculated by a 2.5 Hz single-frequency forced oscillation maneuver (Snapshot 150), and an average was reported for each methacholine dose. Respiratory mechanics were measured in both 3-week-old mice immediately following sustained hyperoxia exposure and separate 6-week-old mice that were recovered in room air following the initial 3 weeks of hyperoxia exposure.
Data are expressed as means±S.E.M. A minimum of two litters or experiments was used for each study; n represent individual animals or cell transfections. Data containing two groups were first tested for normality and variance and then analyzed by two sample student t test, Welch's t test, or Mann-Whitney U test, as appropriate. For multiple comparisons, analysis of variance with Tukey-Kramer post hoc test was used. Alterations in airway reactivity with increasing doses of methacholine were compared by two-way analysis of variance repeated-measures analysis with Tukey-Kramer post hoc comparisons using a fixed-sequence method from highest to lowest methacholine dose. P, 0.05 was considered statistically significant.

`N[C@@H](CCC(=O)N[C@@H](CSN=O)C(=O)NCC(=O)O)C(=O)O` [GSNO, S-nitrosoglutathione]: the “bronchodilator potency relative to theophylline” value in experiment [1] is 100 fold. Also, in the experiment with room air-exposed mice, the “Rrs compared with room air saline-treated controls” value was “did not significantly change Rrs”. Also, the “Rrs in response to aerosolized methacholine challenge (airway hyperreactivity)” value in the experiment on hyperoxia-exposed mice (pretreatment 10 mM GSNO aerosol over 10 seconds) was “attenuated these changes, such that this group was no longer significantly different from room air controls, except at the highest methacholine dose (200 mg/mL)”. Further, the “Rrs increase in hyperoxia, methacholine dose response (FIG. 5A-B)” value in the experiment with hyperoxia-exposed mice (10 mM GSNO aerosol) is given as “attenuated these changes”. In addition, the “Rrs in response to aerosolized methacholine challenge (airway hyperresponsiveness)” value in the experiment on hyperoxia-exposed mice (pretreatment 10 mM GSNO aerosol) is given as “remained effective in attenuating the hyperoxia induced airway hyperresponsiveness”.

As for `Cc1cc(C(N)=O)ccc1-n1c(CCC(=O)O)ccc1-c1ccc(-n2ccnc2)cc1` [N6022, reference compound], the “Rrs in response to aerosolized methacholine challenge (airway hyperreactivity)” value in the experiment with hyperoxia-exposed mice (single 1 mg/kg i.p. injection the day prior) is “attenuated these changes as well, such that this group was no longer significantly different from room air controls at all methacholine doses”. Besides, in the experiment with hyperoxia-exposed mice (1 mg/kg N6022 injection), the “Rrs increase in hyperoxia, methacholine dose response (FIG. 5A-B)” value is given as “attenuated these changes”. Moreover, in the experiment on hyperoxia-exposed mice (1 mg/kg i.p. injection), the “Rrs in response to aerosolized methacholine challenge (airway hyperresponsiveness)” value is “remained effective in attenuating the hyperoxia induced airway hyperresponsiveness”.
